pIC50: −log10 of the molar value. Where two headings read alike, the source gives them in different places.

Data set [1] has as its target T1, P2X7 receptor (Homo sapiens, UniProt Q99572).
T1 construct: host or cells: THP-1 cells differentiated with LPS and IFN-γ
T1 sequence (Q99572 1-595): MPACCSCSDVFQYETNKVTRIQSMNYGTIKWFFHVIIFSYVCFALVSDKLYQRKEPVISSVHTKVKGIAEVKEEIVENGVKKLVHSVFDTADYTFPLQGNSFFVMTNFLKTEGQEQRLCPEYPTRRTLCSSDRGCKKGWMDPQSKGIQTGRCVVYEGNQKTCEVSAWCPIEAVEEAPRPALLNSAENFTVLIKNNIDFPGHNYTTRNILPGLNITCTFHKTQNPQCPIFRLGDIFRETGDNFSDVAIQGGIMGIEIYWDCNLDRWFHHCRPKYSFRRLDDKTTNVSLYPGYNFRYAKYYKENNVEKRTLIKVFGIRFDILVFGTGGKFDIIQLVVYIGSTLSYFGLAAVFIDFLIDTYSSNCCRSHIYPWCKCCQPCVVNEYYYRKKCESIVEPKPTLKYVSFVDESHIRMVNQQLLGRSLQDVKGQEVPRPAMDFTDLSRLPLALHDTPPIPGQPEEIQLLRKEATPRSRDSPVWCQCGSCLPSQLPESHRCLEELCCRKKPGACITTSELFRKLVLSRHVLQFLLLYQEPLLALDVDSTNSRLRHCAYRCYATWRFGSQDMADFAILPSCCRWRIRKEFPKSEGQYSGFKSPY
Kind of data set: IL-1β release assay in differentiated THP-1 cells stimulated with BzATP (Example 9). The class given is cell-based. Particulars: for pIC50: THP-1 cells, IL-1β by ELISA. The method, boiled down: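 IC50 derived by four-parameter logistic fit of percent inhibition of IL-1β release (ELISA, background-adjusted). Release triggered by 45 min BzATP at 250 uM final after 30 min compound pretreatment of THP-1 cells previously differentiated 16 h (LPS, IFN-γ, 100 ng/mL each) and re-primed 2 h with LPS.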

Data set [2] in a line: Pharmacokinetic evaluation following intravenous and oral administration in rats (oral bioavailability). The class given is in vivo, rat. Particulars: male Sprague-Dawley rats, PO 1 to 5 mg/kg vs IV 1 mg/kg, AUCinf dose-normalized. The protocol:
Male Sprague-Dawley rats are acclimatized for at least 24 hours prior to experiment initiation. During acclimation period, all animals receive food and water ad libitum. However, food but not water is removed from the animal's cages at least 12 hours before initiation of the experiment. During the first 3 hours of experimentation, the animals receive only water ad libitum. At least three animals each are tested for intravenous and oral dosage. For intravenous formulation, compounds were dissolved (0.25 to 1 mg/mL) in a mixture of 3% dimethyl sulfoxide, 40% PEG 400 and the rest percentage of 40% Captisol in water (w/v). The animals are weighed before dosing. The determined body weight is used to calculate the dose volume for each animal.
Dose volume (mL/kg)=1 mg/kg/formulation concentration (mg/mL)
In instances where the formulation concentrations were less than 0.5 mg/mL, the dosing volume is about 2 mL/kg.
PO rats are typically dosed through oral gavage following the same dose volume formula as IV to achieve a dose level of 1 to 5 mg/kg. […] About 250 uL of blood is obtained at each time point from the animal. Equal volumes of 0.9% normal saline are replaced to prevent dehydration. The whole blood samples are maintained on ice until centrifugation. Blood samples are then centrifuged at 14,000 rpm for 10 minutes at 4° C. and the upper plasma layer transferred into a clean vial and stored at −80° C. The resulting plasma samples are then analyzed by liquid chromatography-tandem mass spectrometry. Following the measurement of plasma samples and dosing solutions, plasma concentration-time curve is plotted. Plasma exposure is calculated as the area under the concentration-time curve extrapolated to time infinite (AUinf). The AUCinf is averaged and the oral bioavailability (% F) for individual animal is calculated as:
AUCinf (PO)/AUCinf (IV), normalized to their respective dose levels. The % F is reported as the mean % F of all animals dosed orally with the compound of the invention at the specified level (see Table 4 below).
For the purpose of Table 4, oral bioavailability of each compound is expressed as follows: […]

Data set [3] can be described thus: Determination of aqueous (kinetic) solubility. The format is physicochemical. As to conditions: aqueous buffer, kinetic from dmso stock, buffer pH 7.4. As for the experimental part:
The mixture was vortexed for 1 hour and equilibrated overnight at room temperature. The mixture was filtered through a saturated filter and the filtrate was analyzed by LC/MS/MS.
For the purpose of Table 5, solubility of each compound is expressed as follows: […]

Data set [4] can be described thus: Half-life in human liver microsomes (HLM). Particulars: pH 7.4.
Method: (§1) Test compounds (1 μM) are incubated with 3.3 mM MgCl2 and 0.78 mg/mL HLM (HL101) in 100 mM potassium phosphate buffer (pH 7.4) at 37° C. on the 96-deep well plate. The reaction mixture is split into two groups, a non-P450 and a P450 group. NADPH is only added to the reaction mixture of the P450 group. An aliquot of samples of P450 group is collected at 0, 10, 30, and 60 min time point, where 0 min time point indicated the time when NADPH is added into the reaction mixture of P450 group. […] Collected aliquots are extracted with acetonitrile solution containing an internal standard. […] The compound concentration in supernatant is measured by LC/MS/MS system.
(§2) The half-life value is obtained by plotting the natural logarithm of the peak area ratio of compounds/internal standard versus time. The slope of the line of best fit through the points yields the rate of metabolism (k). This is converted to a half-life value using following equations:
Data set [5] is described as follows: in vitro. As to conditions: human, microsomes, pH 7.4.
Method: as §1, §2
Where [6] appears, read: THP-1, read-out: IL-1β % Inhib. @ 0.3 or 0.1 uM.
[7] abbreviates: 0.3 μM compound, differentiated THP-1 cells, BzATP 250 uM, "+" symbols, read-out: IL-1β % Inhib. @ 0.3 or 0.1 uM.

Consider `C[C@H](C(N)=O)n1ccc2c(NC(=O)Cc3ccc(C(F)(F)F)cc3)c(Cl)ccc2c1=O` [Compound 316, (R)-2-{6-Chloro-1-oxo-5-[2-(4-trifluoromethyl-phenyl)-acetylamino]-1H-isoquinolin-2-yl}-propionamide], for which the inhibition at 0.3 µM in data set [1] (setting [6]) is > 76%. Further, the “Oral Bioavailability F (%)” value in data set [2] is recorded as “++ (26-50% F)”. In addition, the solubility in data set [3] was < 25 µM. The compound also showed a half-life at 1 μM in data set [4] of 3.25 h.

As for `C[C@H](CO)n1ccc2c(NC(=O)Cc3cccc(C(F)(F)F)c3F)cccc2c1=O` [Compound 324], the inhibition at 0.3 µM in data set [1] (setting [7]) is > 76%. Moreover, the “Oral Bioavailability F (%)” value in data set [2] is on record as “++ (26-50% F)”. Further, the solubility in data set [3] is > 75 µM. In data set [4], this compound showed a half-life at 1 μM of 0.7 h.

Turning to `C[C@H](CO)n1ccc2c(NC(=O)Cc3ccc(Cl)c(F)c3)cccc2c1=O` [Compound 330, 2-(4-Chloro-3-fluorophenyl)-N-[2-((R)-2-hydroxy-1-methyl-ethyl)-1-oxo-1,2-dihydro-isoquinolin-5-yl]-acetamide], the inhibition at 0.3 µM in data set [1] (setting [7]) was > 76%. The “Oral Bioavailability F (%)” value in data set [2] is on record as “++++ (>75% F)”. Further, in data set [3], the solubility is > 75 µM. For the same compound, the half-life at 1 μM in data set [4] is 1.41 h.

For the compound `C[C@H](CO)n1ccc2c(NC(=O)Cc3ccc(C(F)(F)F)c(F)c3)cccc2c1=O` [Compound 335], the inhibition at 0.3 µM in data set [1] (setting [7]) is > 76%. For the same compound, the “Oral Bioavailability F (%)” value in data set [2] is given as “++ (26-50% F)”. Besides, the solubility in data set [3] was > 75 µM. In addition, the half-life at 1 μM in data set [4] was 0.93 h.

Consider `C[C@H](CO)n1ccc2c(NC(=O)Cc3ccc(F)c(C(F)(F)F)c3)cccc2c1=O` [Compound 339], for which, in data set [1] (setting [7]), the inhibition at 0.3 µM is > 76%. For the same compound, the “Oral Bioavailability F (%)” value in data set [2] is recorded as “+++ (51-75% F)”. The solubility in data set [3] was > 75 µM. The same compound had a half-life at 1 μM in data set [4] of 0.93 h.

In the case of `C[C@@H](C(N)=O)n1ccc2c(NC(=O)Cc3ccc(C(F)(F)F)cc3)cccc2c1=O` [Compound 351], in data set [1] (setting [7]), the inhibition at 0.3 µM was > 76%. In addition, the “Oral Bioavailability F (%)” value in data set [2] is on record as “+ (0-25% F)”. Besides, the solubility in data set [3] was < 25 µM. The compound further gave a half-life at 1 μM in data set [4] of 2.36 h.

As to `C[C@@H](C(N)=O)n1ccc2c(NC(=O)Cc3ccc(Cl)c(C(F)(F)F)c3)cccc2c1=O` [Compound 353], the inhibition at 0.3 µM in data set [1] (setting [7]) was > 76%. Besides, in data set [2], the “Oral Bioavailability F (%)” value is listed as “+ (0-25% F)”. Moreover, in data set [3], the solubility was < 25 µM. In data set [4], the half-life at 1 μM is 1.01 h.

For `O=C(Cc1ccc(C(F)(F)F)c(F)c1)Nc1cccc2c(=O)n(CCO)ccc12` [Compound 357], the inhibition at 0.3 µM in data set [1] (setting [7]) is > 76%. Also, the “Oral Bioavailability F (%)” value in data set [2] is reported as “++++ (>75% F)”. The solubility in data set [3] was < 25 µM. In addition, the half-life at 1 μM in data set [4] was 1.54 h.

With `C[C@H](CO)n1ccc2c(NC(=O)Cc3ccc(C(F)(F)F)cc3F)cccc2c1=O` [Compound 359], in data set [1] (setting [7]), the inhibition at 0.3 µM was > 76%. Further, the “Oral Bioavailability F (%)” value in data set [2] was “++++ (>75% F)”. The solubility in data set [3] was < 25 µM. This compound also showed a half-life at 1 μM in data set [4] of 1.16 h.

As to `C[C@H](CO)n1ccc2c(NC(=O)Cc3ccc(C(F)(F)F)c(F)c3)c(Cl)ccc2c1=O` [Compound 375, N-[6-Chloro-2-((R)-2-hydroxy-1-methyl-ethyl)-1-oxo-1,2-dihydro-isoquinolin-5-yl]-2-(3-fluoro-4-trifluoromethyl-phenyl)-acetamide], the inhibition at 0.3 µM in data set [1] (setting [7]) was > 76%. In addition, in data set [2], the “Oral Bioavailability F (%)” value is “++++ (>75% F)”. In data set [3], the solubility is > 75 µM. The same compound showed a half-life at 1 μM in data set [4] of 1.63 h.

In the case of `C[C@H](CO)n1ccc2c(NC(=O)Cc3ccc(Cl)c(Cl)c3)c(Cl)ccc2c1=O` [Compound 376], the inhibition at 0.3 µM in data set [1] (setting [7]) is > 76%. In data set [2], the “Oral Bioavailability F (%)” value is “++ (26-50% F)”. Besides, the solubility in data set [3] was > 75 µM. Further, the half-life at 1 μM in data set [4] was 0.9 h.

For `C[C@H](CO)n1ccc2c(NC(=O)Cc3ccc(F)c(C(F)(F)F)c3)c(Cl)ccc2c1=O` [Compound 377, N-[6-Chloro-2-((R)-2-hydroxy-1-methyl-ethyl)-1-oxo-1,2-dihydro-isoquinolin-5-yl]-2-(4-fluoro-3-trifluoromethyl-phenyl)-acetamide], in data set [1] (setting [6]), the inhibition at 0.3 µM was > 76%. Moreover, in data set [2], the “Oral Bioavailability F (%)” value is recorded as “+++ (51-75% F)”. The solubility in data set [3] is > 75 µM. The half-life at 1 μM in data set [4] was 1.01 h.

Turning to `O=C(Cc1ccc(C(F)(F)F)c(F)c1)Nc1c(Cl)ccc2c(=O)n(CCO)ccc12` [Compound 383], the inhibition at 0.3 µM in data set [1] (setting [7]) was > 76%. Further, the “Oral Bioavailability F (%)” value in data set [2] was “++++ (>75% F)”. In data set [3], the solubility was < 25 µM. In data set [5], this compound had a half-life of 3.65 h.

Consider `O=C(Cc1ccc(F)c(C(F)(F)F)c1)Nc1c(Cl)ccc2c(=O)n(CCO)ccc12` [Compound 386, N-[6-Chloro-2-(2-hydroxy-ethyl)-1-oxo-1,2-dihydro-isoquinolin-5-yl]-2-(4-fluoro-3-trifluoromethyl-phenyl)-acetamide], for which the inhibition at 0.3 µM in data set [1] (setting [6]) was > 76%. For the same compound, the “Oral Bioavailability F (%)” value in data set [2] is “+ (0-25% F)”. The solubility in data set [3] is < 25 µM. In data set [4], this compound showed a half-life at 1 μM of 1.08 h.

Turning to `Cc1ccc2c(=O)n([C@H](C)CO)ccc2c1NC(=O)Cc1ccc(C(F)(F)F)c(F)c1` [Compound 393, N-[6-Methyl-2-((R)-2-hydroxy-1-methyl-ethyl)-1-oxo-1,2-dihydro-isoquinolin-5-yl]-2-(3-fluoro-4-trifluoromethyl-phenyl)-acetamide], in data set [1] (setting [6]), the inhibition at 0.3 µM was > 76%. Moreover, in data set [1] (BzATP 250 uM), the pIC50 is 8.27. For the same compound, the “Oral Bioavailability F (%)” value in data set [2] was “+++ (51-75% F)”. In data set [3], the solubility is > 75 µM. The compound further gave a half-life in data set [5] of 1.45 h.

On to `Cc1ccc2c(=O)n([C@H](C)CO)ccc2c1NC(=O)Cc1ccc(F)c(C(F)(F)F)c1` [Compound 394], for which, in data set [1] (setting [7]), the inhibition at 0.3 µM was > 76%. For the same compound, in data set [1] (BzATP 250 uM), the pIC50 is 8.26. Besides, in data set [2], the “Oral Bioavailability F (%)” value is reported as “++ (26-50% F)”. Further, in data set [3], the solubility was > 75 µM. The compound further gave a half-life at 1 μM in data set [4] of 0.7 h.

For the compound `Cc1ccc2c(=O)n(CCO)ccc2c1NC(=O)Cc1ccc(C(F)(F)F)c(F)c1` [Compound 400], in data set [1] (differentiated THP-1 cells, BzATP 250 uM, "+" symbols = compound at 0.3 μM, read-out: IL-1β % Inhib. @ 0.3 or 0.1 uM), the inhibition at 0.3 µM was > 76%. Further, the “Oral Bioavailability F (%)” value in data set [2] is on record as “++ (26-50% F)”. Besides, the solubility in data set [3] is > 75 µM. In data set [4], this compound had a half-life at 1 μM of 3.73 h.

(Values after patent US20110092476A1, “Bicycloheteroaryl compounds as P2X7 modulators and uses thereof” (Renovis, Inc., priority 2006, published 2011).)
